Data reported in patent US12152012B2, “BRAG2 inhibitors and applications thereof” (CENTRE NATIONAL DE LA RECHERCHE SCIENTIFIQUE, priority 2018, dated 2024).

What was measured:
Rac1/Trio = target: T1, Rac1/Trio (Homo sapiens, UniProt O75962); assay: Nucleotide exchange kinetics on liposomes, Rac1 tethered by hexahistidine tag; type: biochemical; details: 50 μM; Rac1 tethered to liposomes
T1 construct: human TRIO^DH1PH1 (1232-1550); made in house
Experimental: (§1) FIG. 2. Bragsin is a specific inhibitor of the ArfGEF BRAG2 • a. Bragsin1 has no effect on the Sec7 domain of human ArfGEFs in solution. Nucleotide exchange kinetics were measured by fluorescence kinetics in the presence of Bragsin1 (50 μM) or DMSO using purified Sec7 domains and a truncated version of Arf1 (D17Arf1), which can be activated in solution. […] Nucleotide exchange kinetics were determined in the presence of Bragsin1 (50 μM) or DMSO with ArfGEF constructs carrying membrane-binding domains and myristoylated Arf1. […] was artificially tethered to liposomes by a C-terminal hexahistidine tag as described in (Peurois, F. et al. Biochem J 474, 1259-1272 (2017). Representative kinetic profiles are given in FIG. 15. • c. Bragsin1 inhibits the activation of myristoylated Arf6 by BRAG2 on liposomes. Experiments were carried out as in FIG. 2b. Representative kinetic profiles are given in FIG. 16. • d. Dose-response of Bragsin1 and Bragsin2 towards myristoylated Arf1 and BRAG2 on liposomes. Experiments were carried out as in FIG. 2b. • e. Silencing of BRAG2 phenocopies the effect of Bragsin2 on the TGN46 compartment. […]
(§2) The effect of Bragsin1 on the GEF efficiency of representative human ArfGEFs was evaluated by fluorescence kinetics using highly purified recombinant Arf GTPases and ArfGEFs. […]

[1] = target: T2, BRAG2 (activation of myristoylated Arf6) (Homo sapiens, UniProt Q6DN90); assay: Nucleotide exchange kinetics on liposomes, activation of myristoylated Arf6; type: biochemical; details: 50 μM
T2 construct: human BRAG2^Sec7 (390-594) and BRAG2^Sec7PH (390-811); made in house
Experimental: as §1, §2

T2 sequence (Q6DN90 512-933): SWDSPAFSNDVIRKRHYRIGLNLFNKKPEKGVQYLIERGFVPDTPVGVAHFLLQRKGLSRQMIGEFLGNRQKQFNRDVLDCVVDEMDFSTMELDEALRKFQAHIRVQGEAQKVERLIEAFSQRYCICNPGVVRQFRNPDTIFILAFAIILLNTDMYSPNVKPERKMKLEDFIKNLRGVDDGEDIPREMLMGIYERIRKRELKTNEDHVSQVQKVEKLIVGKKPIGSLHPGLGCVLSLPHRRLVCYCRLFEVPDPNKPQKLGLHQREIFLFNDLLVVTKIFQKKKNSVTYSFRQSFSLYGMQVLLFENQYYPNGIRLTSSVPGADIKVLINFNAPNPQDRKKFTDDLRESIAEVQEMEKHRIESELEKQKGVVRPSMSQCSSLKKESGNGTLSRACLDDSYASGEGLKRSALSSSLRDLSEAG

SMILES: Cc1ccc2oc(C(F)(F)F)cc(=O)c2c1[N+](=O)[O-] [Bragsin1, 6-methyl-5-nitro-2-(trifluoromethyl)-4H-chromen-4-one]
- Effect on Rac1/Trio exchange activity on liposomes (Rac1/Trio): no effect
- Inhibition of BRAG2-mediated activation of myristoylated Arf6 [1]: inhibits
